{"source": "patent US20260083742A1", "about": "“HOMOLOGOUS RECOMBINATION REPAIR DEFICIENCY (HRD) AS A PREDICTIVE BIOMARKER FOR TREATING CANCER WITH WEE1 INHIBITORS” (Zeno Management, Inc., priority 2023, published 2026)", "key": {"[1]": {"tested_on": "HRD+ cells UWB1289, HCC1937, COV362, HCC1569, HCC1395", "experiment": "In vitro cell viability (CellTiter-Glo) in a panel of HRD+ cells", "format": "cell-based", "conditions": "HRD+ cells both PARP inhibitor-sensitive and PARP inhibitor-resistant, 5 cell doublings", "experimental": "Azenosertib, olaparib and AZD5305 (PARP1-selective inhibitor) were individually tested in vitro in a panel of HRD+ cells as indicated in Table 10. Briefly, cells were seeded in their recommended media at a density of 1,000 cells per well into 96 well plates. After 24 hr, drug treatment was performed and cells were incubated in a 37° C. for 5 cell doublings. Cell viability was measured using CellTiter-Glo (CTG) (Promega) according to the manufacturer's recommendations. Percent viability was calculated as percentage of cell viability relative to DMSO-only vehicle control. Dose-response curves were fit with Graphpad Prism 9 to determine IC50 values."}, "[2]": {"tested_on": "MDA-MB-436 olaparib-resistant model", "experiment": "MDA-MB-436 olaparib-resistant CDX model in vivo", "conditions": "azenosertib 80 mg/kg", "source_text": "(§1) MDA-MB-436 PARP inhibitor-resistant lines were generated by long-term in vitro treatment with a PARP inhibitor that is olaparib (Ola^R) or niraparib (Nir^R). Resistant cells were confirmed by sequencing to have BRCA1 reversion mutation. The parental MDA-MB-436 cell line remains sensitive to PARP inhibitors as expected (FIG. 5A), while the Nir^R (FIG. 5B) and Ola^R (FIG. 5C) MDA-MB-436 cell lines are no longer sensitive to PARP inhibitors but are sensitive to azenosertib. Azenosertib activity was further confirmed in the PARP inhibitor-resistant MDA-MB-436 CDX model in vivo. […] WEE1 inhibitor or PARP inhibitor treatment in the Parental TNBC animal model (without PARP inhibitor resistance) is shown in FIG. 5D."}, "[3]": {"tested_on": "HCC1937 PARP inhibitor-resistant TNBC xenograft", "experiment": "HCC1937 TNBC xenograft tumor growth inhibition", "format": "in vivo, mice", "experimental": "Anti-tumor activity of azenosertib monotherapy or in combination with olaparib was evaluated in the HCC1937 model in vivo in mice (FIG. 9), and Table 11 summarizes the groups and treatments. […] Treatment with monotherapy olaparib at 100 mg/kg QD confirmed HCC1937 resistance to the PARP inhibitor."}, "[4]": {"tested_on": "MDA-MB-436 niraparib-resistant model", "experiment": "MDA-MB-436 niraparib-resistant CDX model in vivo", "conditions": "azenosertib 80 mg/kg", "source_text": "as §1"}}}
{"smiles": "C=CCn1c(=O)c2cnc(Nc3ccc(N4CCN(C)CC4)cc3)nc2n1-c1ccc2c(n1)[C@@](O)(CC)CC2", "note": "[Azenosertib, azenosertib]", "values": [{"measurement": "tumor cell growth (dose response curves)", "setting": "[1]", "result": "reduces tumor cell growth"}, {"measurement": "tumor volume compared to the PARP inhibitor", "setting": "[2]", "result": "significant reduction in tumor volume"}, {"measurement": "tumor growth inhibition", "setting": "[3]; monotherapy azenosertib 60 mg/kg QD 5:2", "result": 80, "unit": "%"}, {"measurement": "tumor growth inhibition", "setting": "[3]; monotherapy azenosertib 80 mg/kg QD 5:2", "result": 89, "unit": "%"}, {"measurement": "tumor volume compared to the PARP inhibitor", "setting": "[4]", "result": "significant reduction in tumor volume"}]}
